Tests used:
Experiment in all cases: relative viability (nuclei count vs DMSO), 5 days (fraction); higher = more cells survive
Vemurafenib + Navitoclax = compound: CCCS(=O)(=O)Nc1ccc(F)c(C(=O)c2c[nH]c3ncc(-c4ccc(Cl)cc4)cc23)c1F [Vemurafenib] + CC1(C)CCC(c2ccc(Cl)cc2)=C(CN2CCN(c3ccc(C(=O)NS(=O)(=O)c4ccc(N[C@H](CCN5CCOCC5)CSc5ccccc5)c(S(=O)(=O)C(F)(F)F)c4)cc3)CC2)C1 [Navitoclax] (partner 0.5 µM)
In short: (§1)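 Lung cancer cell lines were seeded in 1536-well plates and dosed by pin tool the next day, with either a single drug or a fixed anchor-drug dose combined with five library-drug doses (not always all listed) spaced in √10 steps. Five days later, one step fixed the cells and stained their nuclei (final 0.05% Triton X-100, 1% formaldehyde, 1 ug/ml Hoechst), and nuclei were counted on 4× images. Relative viability is the nuclei count in treated wells divided by the count in vehicle wells, and each value is the median of duplicate plates.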

Alpelisib + Navitoclax = compound: Cc1nc(NC(=O)N2CCC[C@H]2C(N)=O)sc1-c1ccnc(C(C)(C)C(F)(F)F)c1 [Alpelisib] + CC1(C)CCC(c2ccc(Cl)cc2)=C(CN2CCN(c3ccc(C(=O)NS(=O)(=O)c4ccc(N[C@H](CCN5CCOCC5)CSc5ccccc5)c(S(=O)(=O)C(F)(F)F)c4)cc3)CC2)C1 [Navitoclax] (partner 0.5 µM)
In short: as §1

Vemurafenib + Decitabine = compound: CCCS(=O)(=O)Nc1ccc(F)c(C(=O)c2c[nH]c3ncc(-c4ccc(Cl)cc4)cc23)c1F [Vemurafenib] + Nc1ncn([C@H]2C[C@H](O)[C@@H](CO)O2)c(=O)n1 [Decitabine] (partner 2 µM)
In short: as §1

OSI-027 + Pictilisib = compound: COc1cccc2cc(-c3nc([C@H]4CC[C@H](C(=O)O)CC4)n4ncnc(N)c34)[nH]c12 [OSI-027] + CS(=O)(=O)N1CCN(Cc2cc3nc(-c4cccc5[nH]ncc45)nc(N4CCOCC4)c3s2)CC1 [Pictilisib] (partner 1 µM)
In short: as §1

| Cell Line | relative viability (Vemurafenib + Navitoclax; first compound 0.03162 µM) | relative viability (Vemurafenib + Navitoclax; first compound 0.1 µM) | relative viability (Vemurafenib + Navitoclax; first compound 1 µM) | relative viability (Alpelisib + Navitoclax; first compound 0.04 µM) | relative viability (Alpelisib + Navitoclax; first compound 0.1265 µM) | relative viability (Alpelisib + Navitoclax; first compound 0.4 µM) | relative viability (Alpelisib + Navitoclax; first compound 1.265 µM) | relative viability (Alpelisib + Navitoclax; first compound 4 µM) | relative viability (Vemurafenib + Decitabine; first compound 0.03162 µM) | relative viability (Vemurafenib + Decitabine; first compound 0.1 µM) | relative viability (Vemurafenib + Decitabine; first compound 0.3162 µM) | relative viability (Vemurafenib + Decitabine; first compound 1 µM) | relative viability (OSI-027 + Pictilisib; first compound 0.01 µM) | relative viability (OSI-027 + Pictilisib; first compound 0.03162 µM) | relative viability (OSI-027 + Pictilisib; first compound 0.1 µM) | relative viability (OSI-027 + Pictilisib; first compound 0.3162 µM) | relative viability (OSI-027 + Pictilisib; first compound 1 µM) | relative viability (Vemurafenib + Navitoclax; first compound 0.3162 µM) |
| --- | --- | --- | --- | --- | --- | --- | --- | --- | --- | --- | --- | --- | --- | --- | --- | --- | --- | --- |
| NCI-H441 | 0.798 | 0.614 | 0.735 | 0.571 | 0.434 | 0.8 | 0.43 | 0.552 | 0.252 | 0.262 | 0.28 | 0.231 | 0.459 | 0.312 | 0.491 | 0.312 | 0.257 |  |
| NCI-H460 | 1.17 | 1.14 | 1.07 | 1.06 | 1.25 | 1.08 | 0.701 | 0.299 | 0.435 | 0.511 | 0.485 | 0.501 | 0.274 | 0.416 | 0.295 | 0.314 | 0.211 | 1.02 |
| NCI-H520 | 1.04 | 1.16 | 1.15 | 1.02 | 0.905 | 1.07 | 1.03 | 0.822 | 0.463 | 0.482 | 0.479 | 0.519 | 0.31 | 0.268 | 0.219 | 0.17 | 0.145 | 1.11 |
| NCI-H596 | 0.93 | 0.728 | 0.842 | 0.928 | 0.919 | 0.815 | 0.52 | 0.418 | 0.974 | 0.959 | 0.922 | 0.864 | 0.41 | 0.435 | 0.361 | 0.317 | 0.311 | 1.04 |
| NCI-H647 | 1.05 | 0.913 | 1.23 | 1.04 | 1.03 | 1.22 | 0.83 | 0.948 | 0.478 | 0.396 | 0.38 | 0.444 | 0.395 | 0.398 | 0.234 | 0.276 | 0.15 |  |
| NCI-H727 | 0.518 | 0.366 | 0.438 | 0.33 | 0.303 | 0.411 | 0.244 | 0.137 | 0.688 | 0.762 | 0.964 | 0.866 | 0.3 | 0.247 | 0.351 | 0.246 | 0.319 | 0.613 |
| NCI-H838 | 1.07 | 1.21 | 1.27 | 1.02 | 1.08 | 1.15 | 1.04 | 1.01 | 0.467 | 0.485 | 0.54 | 0.598 | 0.409 | 0.434 | 0.294 | 0.241 | 0.297 |  |
| NCI-H1355 | 0.895 | 0.96 | 0.976 | 0.89 | 1.02 | 1.07 | 0.927 | 0.84 | 0.344 | 0.348 | 0.363 | 0.37 | 0.436 | 0.399 | 0.326 | 0.271 | 0.208 | 0.99 |
| NCI-H1395 | 1.37 | 0.999 | 1.18 | 1.18 | 1.12 | 1.45 | 0.984 | 0.927 | 0.726 | 0.698 | 0.706 | 0.72 | 0.559 | 0.705 | 0.514 | 0.458 | 0.554 |  |
| NCI-H1437 | 1.01 | 1.06 | 1.09 | 1.09 | 1.13 | 1.03 | 1.01 | 1.03 | 0.523 | 0.565 | 0.531 | 0.579 | 0.359 | 0.4 | 0.282 | 0.222 | 0.214 | 1.05 |
| NCI-H1650 | 1.12 |  | 1.15 | 1.29 | 1.29 | 1.42 | 0.762 | 1.19 | 0.348 | 0.499 | 0.413 | 0.461 | 0.551 | 0.553 | 0.474 | 0.432 | 0.347 | 1.18 |
| NCI-H1651 | 1.02 | 0.976 | 0.93 | 0.956 | 1.11 | 1.04 | 0.773 | 0.791 | 0.532 | 0.633 | 0.494 | 0.621 | 0.538 |  | 0.504 | 0.464 | 0.282 | 1.07 |
| NCI-H1666 | 0.932 |  | 0.972 | 0.95 | 0.677 | 0.937 | 0.762 | 0.689 | 0.612 | 0.724 | 0.686 | 0.764 | 0.365 | 0.369 | 0.537 | 0.27 | 0.257 | 1.06 |
| NCI-H1734 | 0.787 | 0.77 | 0.823 | 0.835 | 0.758 | 0.794 | 0.714 | 0.47 | 0.569 | 0.486 | 0.506 | 0.506 | 0.455 | 0.45 | 0.491 | 0.337 | 0.264 | 0.784 |
| NCI-H1755 | 0.937 | 0.953 | 0.998 | 1.05 | 0.979 | 1.04 | 0.93 | 0.705 | 0.705 | 0.616 | 0.73 | 0.711 | 0.412 | 0.392 | 0.346 | 0.306 | 0.281 | 1.05 |
| NCI-H1792 | 0.565 | 0.61 | 0.593 | 0.619 | 0.582 | 0.702 | 0.514 | 0.336 | 0.539 | 0.564 |  | 0.477 | 0.288 | 0.166 | 0.213 | 0.161 | 0.232 | 0.439 |
| NCI-H1793 | 0.389 |  | 0.454 | 0.419 | 0.335 | 0.356 | 0.376 | 0.365 | 0.449 | 0.325 | 0.672 | 0.492 | 0.421 | 0.329 | 0.276 | 0.222 | 0.179 | 0.361 |
| NCI-H1915 | 0.757 | 0.795 | 0.789 | 0.8 | 0.829 | 0.82 | 0.764 | 0.504 | 0.244 | 0.253 | 0.26 | 0.244 | 0.947 | 0.988 | 0.78 | 0.716 | 0.572 | 0.745 |
| NCI-H1944 | 1.06 | 0.846 | 1.04 | 0.964 | 1.13 | 1.09 | 0.824 | 0.617 | 0.488 |  | 0.45 | 0.456 | 0.369 | 0.349 | 0.32 | 0.287 | 0.247 | 1.05 |
| NCI-H1975 | 0.94 | 1.11 | 1.03 | 0.963 | 1.06 | 1.03 | 0.788 | 0.511 | 0.419 | 0.418 | 0.345 | 0.32 | 0.279 | 0.236 | 0.312 | 0.178 | 0.218 | 0.952 |
| NCI-H1993 | 0.857 |  | 1.08 | 1.11 | 0.879 | 0.874 | 0.659 | 0.702 | 0.513 |  | 0.651 | 0.713 | 0.808 | 0.906 | 0.86 | 0.798 | 0.691 | 1.25 |
| NCI-H2009 | 1.14 | 1.13 | 1.05 | 1.24 | 1.14 | 1.16 | 1.08 | 1.13 | 0.394 | 0.341 | 0.341 | 0.438 | 0.885 | 0.729 | 0.7 | 0.46 | 0.405 | 1.01 |
| NCI-H2023 | 0.974 | 1.03 | 1.02 | 0.882 | 1.01 | 0.887 | 0.782 | 0.66 | 0.228 | 0.224 | 0.257 | 0.246 | 0.23 | 0.229 | 0.181 | 0.155 | 0.0973 | 1.03 |
| NCI-H2085 | 1.05 | 0.972 | 1.09 | 1.2 | 1.06 | 1.14 | 0.914 | 1.11 | 0.495 | 0.529 | 0.536 | 0.597 | 0.436 | 0.367 | 0.483 | 0.33 | 0.323 | 1.23 |
| NCI-H2087 | 0.936 | 0.915 | 0.987 | 1.01 | 1.09 | 1.1 | 0.767 | 0.991 | 0.198 | 0.273 | 0.346 | 0.336 | 0.794 | 0.787 | 0.686 | 0.523 | 0.329 |  |
| NCI-H2126 | 0.808 | 0.778 | 0.83 | 0.768 | 0.865 | 0.816 | 0.618 | 0.525 | 0.559 | 0.542 | 0.599 | 0.552 | 0.519 | 0.487 | 0.455 | 0.419 | 0.407 | 0.825 |
| NCI-H2170 | 0.532 | 0.251 | 0.484 | 0.54 | 0.638 | 0.52 | 0.316 | 0.308 | 0.435 |  | 0.441 | 0.455 | 0.284 | 0.295 | 0.245 | 0.266 | 0.258 | 0.639 |
| NCI-H2347 | 0.633 | 0.78 | 0.75 | 0.919 | 0.745 | 0.868 | 0.665 | 0.605 | 0.588 | 0.538 | 0.562 | 0.613 | 0.559 | 0.589 | 0.411 | 0.324 | 0.313 | 0.7 |
| NCI-H2405 | 0.836 | 0.812 | 0.864 | 1.05 | 0.894 | 0.798 | 0.596 | 0.789 | 0.668 | 0.678 |  | 0.736 | 0.406 | 0.345 | 0.292 | 0.228 | 0.242 |  |
| NCI-H3122 | 1.04 | 0.993 | 1.1 | 1.03 | 0.982 | 1.02 | 0.906 | 0.81 | 0.429 | 0.485 | 0.481 | 0.504 | 0.603 | 0.584 | 0.513 | 0.317 | 0.258 | 1.02 |

From the supplement of paper PMC10307832
